Measured values as given in PMC6627438, “Terrosamycins A and B, Bioactive Polyether Ionophores from Streptomyces sp. RKND004 from Prince Edward Island Sediment” (Marine Drugs, 2019).
Read-outs that look alike come from different tables or passages of the source.

Legend:
[1] = system: human breast adenocarcinoma cells (ATCC HTB-26); experiment: Cytotoxicity assay (alamarBlue), HTB-26; format: cell-based; settings: read-out: IC50 HTB-26
Experimental: (§1) In light of this information, 1, 2 and the known polyether standards were tested against a human breast adenocarcinoma cell line (HTB-26) and a human invasive breast ductal carcinoma cell line (MCF-7). The compounds were also tested in a healthy human foreskin fibroblast cell line (BJ) and healthy Cercopithecus aethiops kidney epithelial cells (Vero) as an evaluation of cytotoxicity toward healthy cells.
(§2) The cytotoxicities of compounds 1–5 were evaluated using two healthy cell lines—human foreskin fibroblast cells (BJ, ATCC CRL-2522) and Cercopithecus aethiops kidney epithelial cells (Vero, ATCC CCL-81)—as well as two cancer cell lines—human breast adenocarcinoma cells (ATCC HTB-26) and human invasive breast ductal carcinoma cells (ATCC MCF-7). Each cell line was grown and maintained in 15 mL of Eagle’s Minimal Essential Medium in T75 cm^2 cell culture flasks with the exception of HTB-26 cells which were grown in Dulbecco’s Modified Eagle’s Medium/Nutrient Mixture F-12 Ham. All growth media were supplemented with 10% fetal bovine serum, […] penicillin and 0.1 mg/mL streptomycin; the growth medium for MCF-7 cells was also supplemented with 0.01 mg/mL human recombinant insulin. All cell cultures were incubated at 37 °C in a humidified atmosphere with 5% CO2 and culture media was refreshed every two to three days. The cells were not allowed to exceed 80% confluency. At 80% confluency, the cells were counted and diluted in their respective growth medium without addition of antibiotics. Aliquots of 90 μL were added to a microwell plate at a density of 1 × 10^4 cells/well for Vero and HTB-26 cells and 5 × 10^3 cells/well for BJ fibroblast and MCF-7 cells. The plates were incubated at 37 °C with 5% CO2 for 24 h to allow cells to adhere to the plates prior to treatment. The vehicle DMSO was used to dissolve 1 and 2 and was present at a final concentration of 1% in each of the wells. A dilution series was prepared for each cell line using the respective growth medium and 10 μL aliquots of each was added to the respective plate in concentrations ranging from 128 μg/mL to 1 μg/mL in triplicate. Positive control wells contained only the growth medium and DMSO, negative control wells contained the growth medium, DMSO and cells and positive treated controls contained the growth medium, cells and a concentration range of either zinc pyrithione (BJ fibroblast), phenoxyethanol (Vero), or doxorubicin (HTB-26 and MCF-7). All plates were incubated at 37 °C with 5% CO2 for 24 h (BJ fibroblast, Vero) or 72 h (HTB-26, MCF-7). Following incubation, alamarBlue was added to each well at a concentration of 10% (v/v). Fluorescence was measured at 560 nm excitation and 590 nm emission using a Thermo Scientific Varioskan Flash plate reader at time zero and 4 h after treatment with alamarBlue. The change in 590 nm emission reading was used to calculate percent cell viability after each treatment relative to the negative controls. The IC50 values of compounds 1–5 for each cell line were calculated using GraphPad Prism 6.0.

[2] = system: human invasive breast ductal carcinoma cells (ATCC MCF-7); experiment: Cytotoxicity assay (alamarBlue), MCF-7; format: cell-based; settings: read-out: IC50 MCF-7
Experimental: as §1, §2

[3] = system: methicillin-resistant S. aureus ATCC 33591 (MRSA); experiment: Antimicrobial assay (OD600 growth, CLSI microdilution), MRSA; format: cell-based, Staphyloccocus aureus; settings: Staphylococcus aureus, 22 h, read-out: IC50 MRSA
Experimental: (§3) The antimicrobial activities of 1 and 2 were evaluated against a panel of pathogens. For comparison, three known polyether ionophore standards were selected and tested in parallel. […] Furthermore, salinomycin and monensin are currently approved and marketed as antibiotics and anticoccidial agents for cattle and poultry. The compounds were each tested against the Gram-positive pathogens methicillin-resistant Staphyloccocus aureus (MRSA), vancomycin resistant Enterococcus faecium (VRE) and Staphylococcus warneri, Gram-negative pathogens Pseudomonas aeruginosa and Proteus vulgaris, and the yeast Candida albicans. No activity was observed against P. aeruginosa, P. vulgaris or C. albicans at the highest concentration tested (128 μg/mL).
(§4) The antimicrobial activities of 1–5 were evaluated using a panel of human pathogens including methicillin-resistant S. aureus ATCC 33591 (MRSA), vancomycin resistant E. faecium EF379 (VRE), S. warneri ATCC 17917, P. aeruginosa ATCC 14210, P. vulgaris ATCC 12454 and C. albicans ATCC 14035. Assays were performed according to Clinical Laboratory Standards Institute testing standards in a 96-well plate and in triplicate. Compounds 1–5 were dissolved in sterile 20% DMSO and serially diluted creating a range of twelve concentrations between 128 μg/mL and 0.0625 μg/mL. A Thermo Scientific Varioskan Flash plate reader was used to determine cell growth by measuring the optical density at 600 nm at time zero and after incubation at 37 °C for 22 h. The change in OD600 was calculated, percentages of microorganism survival were compared to the vehicle control wells and IC50 values were determined using GraphPad Prism 6.0 (GraphPad Software, San Diego, CA, USA). Control antibiotics used were vancomycin for MRSA and S. warneri, rifampicin for VRE, gentamycin for P. aeruginosa, ciprofloxacin for P. vulgaris and nystatin for C. albicans.

[4] = system: vancomycin resistant E. faecium EF379 (VRE); experiment: Antimicrobial assay (OD600 growth, CLSI microdilution), VRE; format: cell-based, Enterococcus faecium; settings: 22 h, read-out: IC50 VRE
Experimental: The antimicrobial activities of 1 and 2 were evaluated against a panel of pathogens. For comparison, three known polyether ionophore standards were selected and tested in parallel. […] The compounds were each tested against the Gram-positive pathogens methicillin-resistant Staphyloccocus aureus (MRSA), vancomycin resistant Enterococcus faecium (VRE) and Staphylococcus warneri, Gram-negative pathogens Pseudomonas aeruginosa and Proteus vulgaris, and the yeast Candida albicans.
as §4, with “Compounds 1–5 were dissolved in sterile 20% DMSO and serially diluted creating a range of twelve concentrations between 128 μg/mL and 0.0625 μg/mL.” left out

[5] = system: S. warneri ATCC 17917; experiment: Antimicrobial assay (OD600 growth, CLSI microdilution), S. warneri; format: cell-based; settings: Staphylococcus warneri, read-out: IC50 S. warneri
Experimental: as §3, §4

[6] = system: Cercopithecus aethiops kidney epithelial cells (Vero, ATCC CCL-81); experiment: Cytotoxicity assay (alamarBlue), Vero; format: cell-based; settings: Chlorocebus sabaeus, 24 h, read-out: IC50 Vero
Experimental: as §1, §2

[7] = system: human foreskin fibroblast cells (BJ, ATCC CRL-2522); experiment: Cytotoxicity assay (alamarBlue), BJ; format: cell-based; settings: 24 h, read-out: IC50 BJ
Experimental: as §1, §2

[8] = HTB26, average ± SE (n = 3), 72 h, alamarBlue, breast cancer cell line
[9] = MCF7, average ± SE (n = 3), 72 h, alamarBlue, breast cancer cell line
[10] = average ± SE (n = 6), 37 °C, OD600
[11] = ATCC17917, average ± SE (n = 6), 37 °C, 22 h, OD600
[12] = average ± SE (n = 3), alamarBlue, healthy cell line

Row | SMILES | IC50 [1, 8] [µM] | IC50 [2, 9] [µM] | IC50 [3, 10] [µM] | IC50 [4, 10] [µM] | IC50 [5, 11] [µM] | IC50 [6, 12] [µM] | IC50 [7, 12] [µM] | IC50 [3] [µM] | IC50 [4] [µM] | IC50 ([5]; ATCC17917, 22 h) [µM] | IC50 ([1]; HTB26, 72 h) [µM] | IC50 ([2]; MCF7, 72 h) [µM] | IC50 [6] [µM] | IC50 [7] [µM]
1 | COc1cccc2c1C(=O)c1c(O)c3c(c(O)c1C2=O)C[C@@](O)(C(=O)CO)C[C@@H]3O[C@H]1C[C@H](N)[C@H](O)[C@H](C)O1 [doxorubicin control, doxorubicin] | 4 ± 2 | 0.8 ± 0.1 |  |  |  |  |  |  |  |  |  |  |  | 
2 | CC[C@@]1([C@@H]2O[C@@H]([C@H]3O[C@@](O)(CO)[C@H](C)C[C@@H]3C)C[C@@H]2C)CC[C@H]([C@]2(C)CC[C@]3(C[C@H](O)[C@@H](C)[C@@H]([C@@H](C)[C@@H](OC)[C@H](C)C(=O)O)O3)O2)O1 [monensin (4), monensin] | 10 ± 1 | 7 ± 2 | 1.5 ± 0.1 | 8 ± 5 | 2 ± 0.2 | 10000 | 245 ± 11 |  |  |  |  |  |  | 
3 | CO[C@@H]1C[C@@H](C[C@H]2CC[C@H](C)[C@H]([C@@H](C)C(=O)O)O2)O[C@]2(O[C@](C)([C@H]3CC[C@@](C)([C@@H]4O[C@@H]([C@H]5O[C@@](O)(CO)[C@H](C)C[C@@H]5C)C[C@@H]4C)O3)C[C@H]2C)[C@@H]1C [nigericin (5), nigericin] | 13 ± 2 | 9 ± 3 | 0.2 ± 0.1 | 0.5 ± 0.1 | 0.3 ± 0.1 | 61 ± 8 | 221 ± 10 |  |  |  |  |  |  | 
4 | CO[C@H]1/C=C/O[C@@]2(C)Oc3c(C)c(O)c4c(O)c(c(/C=N/N5CCN(C)CC5)c(O)c4c3C2=O)NC(=O)/C(C)=C\C=C\[C@H](C)[C@H](O)[C@@H](C)[C@@H](O)[C@@H](C)[C@H](OC(C)=O)[C@@H]1C [rifampicin control, rifampicin] |  |  |  | 1.1 ± 0.1 |  |  |  |  |  |  |  |  |  | 
5 | CC[C@@H](C(=O)[C@@H](C)[C@@H](O)[C@H](C)[C@@H]1O[C@@H]([C@@H](CC)C(=O)O)CC[C@@H]1C)[C@H]1O[C@]2(C=C[C@@H](O)[C@]3(CC[C@@](C)([C@H]4CC[C@](O)(CC)[C@H](C)O4)O3)O2)[C@H](C)C[C@@H]1C [salinomycin (3), salinomycin] | 13 ± 1 | 10 ± 3 |  |  | 0.9 ± 0.2 | 78 ± 22 | 196 ± 3 | 0.4 ± 0.1 | 0.8 ± 0.2 |  |  |  |  | 
6 | C[C@@H]1C[C@H](C)[C@@](O)(C[C@H]2O[C@@](O)(C[C@@H](O)[C@@H](C)C(=O)[C@](C)(O)[C@@H]3CC[C@@](C)([C@H]4CC[C@@](C)(O)[C@H](C)O4)O3)[C@H](C)C[C@@H]2C)O[C@H]1C[C@H]1CC[C@H](C)[C@@H]([C@@H](C)C(=O)O)O1 [terrosamycin A (1), terrosamycin A] |  |  |  |  |  |  |  | 0.5 ± 0.2 | 0.58 ± 0.04 | 0.9 ± 0.3 | 10.1 ± 0.6 | 6 ± 1 | 36 ± 6 | 79 ± 5
7 | CO[C@@]1(C[C@@H](O)[C@@H](C)C(=O)[C@](C)(O)[C@@H]2CC[C@@](C)([C@H]3CC[C@@](C)(O)[C@H](C)O3)O2)O[C@H](C[C@@]2(OC)O[C@@H](C[C@H]3CC[C@H](C)[C@@H]([C@@H](C)C(=O)O)O3)[C@H](C)C[C@@H]2C)[C@@H](C)C[C@H]1C [terrosamycin B (2), terrosamycin B] |  |  |  |  |  |  |  | 0.34 ± 0.04 | 0.5 ± 0.1 | 0.7 ± 0.1 | 6 ± 1 | 3.9 ± 0.4 | 93 ± 4 | 267 ± 28
8 | CN[C@H](CC(C)C)C(=O)N[C@H]1C(=O)N[C@@H](CC(N)=O)C(=O)N[C@H]2C(=O)N[C@H]3C(=O)N[C@H](C(=O)N[C@H](C(=O)O)c4cc(O)cc(O)c4-c4cc3ccc4O)[C@H](O)c3ccc(c(Cl)c3)Oc3cc2cc(c3O[C@@H]2O[C@H](CO)[C@@H](O)[C@H](O)[C@H]2O[C@H]2C[C@](C)(N)[C@H](O)[C@H](C)O2)Oc2ccc(cc2Cl)[C@H]1O [vancomycin control, vancomycin] |  |  |  |  |  |  |  | 0.8 ± 0.1 |  | 0.53 ± 0.01 |  |  |  | 
